The molecules below were run on RKO p21 colon adenocarcinoma cells, uninduced (proliferating) (assay: Alamar Blue cell viability assay, RKO p21 uninduced (proliferating)). Settings: Homo sapiens; anti-proliferative/cytotoxic activity, 72 hours, without Ponasterone A; read-out: −log EC50 [mol/l] RKO p21 uninduced (proliferating) (converted).
Format: cell-based
Protocol: The anti-proliferative/cytotoxic activity of the compounds described herein can be tested on subclones of RKO human colon adenocarcinoma cells (Schmidt et al., Oncogene 19, 2423-2429; 2000) using the Alamar Blue cell viability assay (described in O'Brien et al. Eur J Biochem 267, 5421-5426, 2000). The compounds are dissolved as 10 mM solutions in DMSO and subsequently diluted in semi-logarithmic steps. DMSO dilutions are further diluted 1:100 into Dulbecco's modified Eagle's medium (DMEM) containing 10% fetal calf serum to a final concentration twice as much as the final concentration in the test. RKO subclones are seeded into 96 well flat bottom plates at a density of 4000 cells per well in a volume of 50 μl per well. 24 hours after seeding the 50 μl each of the compound dilutions in DMEM medium are added into each well of the 96 well plate. Each compound dilution is tested as triplicates. Wells containing untreated control cells are filled with 50 μl DMEM medium containing 1% DMSO. The cells are then incubated with the substances for 72 hours at 37° C. in a humidified atmosphere containing 5% carbon dioxide. To determine the viability of the cells, 10 μl of an Alamar Blue solution (Biosource) are added and the fluorescence is measured at an extinction of 544 nm and an emission of 590 nm. For the calculation of the cell viability the emission value from untreated cells is set as 100% viability and the emission rates of treated cells are set in relation to the values of untreated cells. Viabilities are expressed as % values. The Graphpad Prism program is used for the calculation of EC50 values for anti-proliferative/cytotoxic activity out of the obtained dose-response curves.
To determine the cell cycle specific mode of action, subclones of RKO colon adenocarcinoma cells (RKOp21 or RKOp27 as described by Schmidt et al. in Oncogene 19, 2423-2429; 2000) are seeded into 96 well flat bottom plates at a density of 16000 cells per well in a volume of 50 μl per well in DMEM growth medium with 10% FCS containing 10 μM Ponasterone A. 24 hours after seeding the 50 μl each of the compound dilutions in DMEM medium are added into each well of the 96-well plate. Each compound dilution is tested as triplicates. Wells containing untreated control cells are filled with 50 μl DMEM medium containing 1% DMSO. The cells are then incubated with the substances for 72 hours at 37° C. in a humidified atmosphere containing 5% carbon dioxide. To determine the viability of the cells, 10 μl of an Alamar Blue solution (Biosource) are added and the fluorescence is measured at an extinction of 544 nm and an emission of 590 nm. For the calculation of the cell viability the emission value from untreated cells is set as 100% viability and the emission rates of treated cells are set in relation to the values of untreated cells. Viabilities are expressed as % values. The Graphpad Prism program (GraphPad Software, Inc) is used for the calculation of EC50 values out of the obtained dose-response curves. Viability is compared of proliferating cells grown in the absence of the inducer Ponasterone A, versus viability of cells arrested by the expression of ectopic p27Kip1 induced by Ponasterone A.
Representative values for anti-proliferation/cytotoxicity [measured as −log EC50 (mol/l)] determined in the aforementioned assays follow from the following tables B1 and B2, in which the numbers of the compounds correspond to the numbers of the examples.
COc1ccc2[nH]c3c(c2c1)C[C@@]1(C)C(=O)N(C)C(=O)N1[C@@H]3c1ccccc1 (racemic) [Example 2, (3aSR,10RS)-6-Methoxy-2,3a-dimethyl-10-phenyl-3a,4,9,10-tetrahydro-2,9,10a-triaza-cyclopenta[b]fluorene-1,3-dione] showed an EC50 of no more than 1000 nM.
In the case of COc1ccc2[nH]c3c(c2c1)C[C@@]1(C)C(=O)N(CCN2CCCC2)C(=O)N1[C@@H]3c1ccccc1 (racemic) [Example 3, (3aSR,10RS)-6-Methoxy-3a-methyl-10-phenyl-2-(2-pyrrolidin-1-yl-ethyl)-3a,4,9,10-tetrahydro-2,9,10a-triaza-cyclopenta[b]fluorene-1,3-dione], the EC50 is reported as no more than 1000 nM.
CC[C@@]12Cc3c([nH]c4ccc(OC)cc34)[C@@H](c3ccccc3)N1C(=O)N(CCN(C)C)C2=O (racemic) [Example 5, (3aSR,10RS)-2-(2-Dimethylamino-ethyl)-3a-ethyl-6-methoxy-10-phenyl-3a,4,9,10-tetrahydro-2,9,10a-triaza-cyclopenta[b]fluorene-1,3-dione] showed an EC50 of no more than 1000 nM.
CC[C@@]12Cc3c([nH]c4ccc(OC)cc34)[C@@H](c3ccccc3)N1C(=O)N(CCCN(C)C)C2=O (racemic) [Example 6, (3aSR,10RS)-2-(3-Dimethylamino-propyl)-3a-ethyl-6-methoxy-10-phenyl-3a,4,9,10-tetrahydro-2,9,10a-triaza-cyclopenta[b]fluorene-1,3-dione] gave an EC50 of no more than 1000 nM.
COc1ccc2[nH]c3c(c2c1)C[C@@]1(C)C(=O)N(CCCN)C(=O)N1[C@@H]3c1ccccc1 (racemic) [Example 7, (3aSR,10RS)-2-(3-Amino-propyl)-6-methoxy-3a-methyl-10-phenyl-3a,4,9,10-tetrahydro-2,9,10a-triaza-cyclopenta[b]fluorene-1,3-dione] was tested, and the EC50 was no more than 1000 nM.
Work on CC[C@@]12Cc3c([nH]c4ccc(OC)cc34)[C@@H](c3ccccc3)N1C(=O)N(CCN)C2=O (racemic) [Example 10, (3aSR,10RS)-2-(2-Amino-ethyl)-3a-ethyl-6-methoxy-10-phenyl-3a,4,9,10-tetrahydro-2,9,10a-triaza-cyclopenta[b]fluorene-1,3-dione] yielded an EC50 of no more than 1000 nM.
For COc1ccc2[nH]c3c(c2c1)C[C@@]1(C)C(=O)N(CCN)C(=O)N1[C@@H]3c1ccccc1 (racemic) [Example 13, (3aSR,10RS)-2-(2-Amino-ethyl)-6-methoxy-3a-methyl-10-phenyl-3a,4,9,10-tetrahydro-2,9,10a-triaza-cyclopenta[b]fluorene-1,3-dione], the EC50 was no more than 1000 nM.
For CNCCN1C(=O)N2[C@H](c3ccccc3)c3[nH]c4ccc(OC)cc4c3C[C@@]2(C)C1=O (racemic) [Example 14, (3aSR,10RS)-6-Methoxy-3a-methyl-2-(2-methylamino-ethyl)-10-phenyl-3a,4,9,10-tetrahydro-2,9,10a-triaza-cyclopenta[b]fluorene-1,3-dione], the EC50 was no more than 1000 nM.
CCNCCN1C(=O)N2[C@H](c3ccccc3)c3[nH]c4ccc(OC)cc4c3C[C@@]2(C)C1=O (racemic) [Example 15, (3aSR,10RS)-2-(2-Ethylamino-ethyl)-6-methoxy-3a-methyl-10-phenyl-3a,4,9,10-tetrahydro-2,9,10a-triaza-cyclopenta[b]fluorene-1,3-dione] was tested, and the EC50 was no more than 1000 nM.
COc1ccc2[nH]c3c(c2c1)C[C@@]1(C)C(=O)N(CCN2CCC2)C(=O)N1[C@@H]3c1ccccc1 (racemic) [Example 16, (3aSR,10RS)-2-(2-Azetidin-1-yl-ethyl)-6-methoxy-3a-methyl-10-phenyl-3a,4,9,10-tetrahydro-2,9,10a-triaza-cyclopenta[b]fluorene-1,3-dione] gave an EC50 of no more than 1000 nM.
In the case of COc1ccc2[nH]c3c(c2c1)C[C@@]1(C)C(=O)N(CCNC(C)C)C(=O)N1[C@@H]3c1ccccc1 (racemic) [Example 19, (3aSR,10RS)-2-(2-Isopropylamino-ethyl)-6-methoxy-3a-methyl-10-phenyl-3a,4,9,10-tetrahydro-2,9,10a-triaza-cyclopenta[b]fluorene-1,3-dione], the EC50 is reported as no more than 1000 nM.
COc1ccc2[nH]c3c(c2c1)C[C@@]1(C)C(=O)N(CCNCC2CC2)C(=O)N1[C@@H]3c1ccccc1 (racemic) [Example 25, (3aSR, 10RS)-2-[2-(Cyclo-propylmethyl-amino)-ethyl]-6-methoxy-3a-methyl-10-phenyl-3a,4,9,10-tetrahydro-2,9,10a-triaza-cyclopenta [b]fluorene-1,3-dione] gave an EC50 of no more than 1000 nM.
COc1ccc2[nH]c3c(c2c1)C[C@@]1(C)C(=O)N(CCNCCO)C(=O)N1[C@@H]3c1ccccc1 (racemic) [Example 26, (3aSR, 10RS)-2-[2-(2-Hydroxy-ethylamino)-ethyl]-6-methoxy-3a-methyl-10-phenyl-3a,4,9,10-tetrahydro-2,9,10a-triaza-cyclopenta[b] fluorene-1,3-dione] gave an EC50 of no more than 1000 nM.
With COc1ccc2[nH]c3c(c2c1)C[C@@]1(C)C(=O)N(CCNC(C)(C)C)C(=O)N1[C@@H]3c1ccccc1 (racemic) [Example 27, (3aSR, 10RS)-2-(2-tert-Butylamino-ethyl)-6-methoxy-3a-methyl-10-phenyl-3a,4,9,10-tetrahydro-2,9,10a-triaza-cyclopenta[b]fluorene-1,3-dione] the EC50 was no more than 1000 nM.
In the case of C=CCNCCN1C(=O)N2[C@H](c3ccccc3)c3[nH]c4ccc(OC)cc4c3C[C@@]2(C)C1=O (racemic) [Example 28, (3aSR, 10RS)-2-(2-Allyl-amino-ethyl)-6-methoxy-3a-methyl-10-phenyl-3a,4,9,10-tetrahydro-2,9,10a-triaza-cyclopenta[b]fluorene-1,3-dione], the EC50 is reported as no more than 1000 nM.
C#CCNCCN1C(=O)N2[C@H](c3ccccc3)c3[nH]c4ccc(OC)cc4c3C[C@@]2(C)C1=O (racemic) [Example 29, (3aSR, 10RS)-6-Methoxy-3a-methyl-10-phenyl-2-(2-prop-2-ynylamino-ethyl)-3a,4,9,10-tetrahydro-2,9,10a-triaza-cyclopenta[b]fluorene-1,3-dione] gave an EC50 of no more than 1000 nM.
In the case of COc1ccc2[nH]c3c(c2c1)C[C@@]1(C)C(=O)N(CCN(C)CCO)C(=O)N1[C@@H]3c1ccccc1 (racemic) [Example 30, (3aSR, 10RS)-2-{2-[(2-Hydroxy-ethyl)-methyl-amino]-ethyl}-6-methoxy-3a-methyl-10-phenyl-3a,4,9,10-tetrahydro-2,9,10a-triaza-cyclopenta[b]fluorene-1,3-dione], the EC50 is reported as no more than 1000 nM.
COc1ccc2[nH]c3c(c2c1)C[C@@]1(C)C(=O)N(CCN2CC=CC2)C(=O)N1[C@@H]3c1ccccc1 (racemic) [Example 31, (3aSR, 10RS)-2-[2-(2,5-Dihydro-pyrrol-1-yl)-ethyl]-6-methoxy-3a-methyl-10-phenyl-3a,4,9,10-tetrahydro-2,9,10a-triaza-cyclopenta[b] fluorene-1,3-dione] showed an EC50 of no more than 1000 nM.
For COc1ccc2[nH]c3c(c2c1)C[C@@]1(C)C(=O)N(CCN2CCCCC2)C(=O)N1[C@@H]3c1ccccc1 (racemic) [Example 32, (3aSR, 10RS)-6-Methoxy-3a-methyl-10-phenyl-2-(2-piperidin-1-yl-ethyl)-3a,4,9,10-tetrahydro-2,9,10a-triaza-cyclopenta[b]fluorene-1,3-dione], the EC50 was no more than 1000 nM.
With COc1ccc2[nH]c3c(c2c1)C[C@@]1(C)C(=O)N(CCN2CC=CCC2)C(=O)N1[C@@H]3c1ccccc1 (racemic) [Example 33, (3aSR, 10RS)-2-[2-(3,6-Dihydro-2H-pyridin-1-yl)-ethyl]-6-methoxy-3a-methyl-10-phenyl-3a,4,9,10-tetra-hydro-2,9,10a-triaza-cyclo-penta[b]fluorene-1,3-dione] the EC50 was no more than 1000 nM.
